# Measurements reported in patent US7767716B2, “Acyl hydrazines as kinase inhibitors, in particular for SGK” (Merck Patent GmbH, priority 2005, dated 2010).
# Values joined by “and” are separate entries in the source; they are usually repeats but may differ in a detail not shown here. Identical values can stand only once.
row,Compound,melting point
1,O=C(Cc1cccc(O)c1)NNC(=O)c1cc([N+](=O)[O-])cc([N+](=O)[O-])c1,248 to 249 °C
2,O=C(Cc1cccc(O)c1)NNC(=O)c1ccc(OCc2ccccc2)cc1 [compound 2],199 to 200 °C
3,O=C(Cc1cccc(O)c1)NNC(=O)c1ccc(O)cc1 [compound 3],207 to 208 °C
4,O=C(Cc1cccc(O)c1)NNC(=O)c1cccc(OCc2ccccc2)c1 [compound 4],152 to 153 °C
5,O=C(Cc1cccc(O)c1)NNC(=O)c1ccc(OCc2ccccc2)cc1Cl [compound 7],162 to 164 °C
6,COc1cc(Cl)c(C(=O)NNC(=O)Cc2cccc(O)c2)cc1OC [compound 9],174 to 175 °C
7,COc1cc(I)c(C(=O)NNC(=O)Cc2cccc(O)c2)cc1OC [compound 10],199 to 200 °C
8,COc1cc(C(=O)NNC(=O)Cc2cccc(O)c2)c([N+](=O)[O-])cc1OC [compound 11],226 to 227 °C
9,COc1cc(OCc2ccccc2)ccc1C(=O)NNC(=O)Cc1cccc(O)c1 [compound 14],193 to 194 °C
10,O=C(Cc1cccc(O)c1)NNC(=O)c1cc(Cl)ccc1Br [compound 15],212 to 213 °C
11,O=C(Cc1cccc(O)c1)NNC(=O)c1ccc(OC(F)(F)F)cc1 [compound 16],189 to 190 °C
12,COc1ccccc1C(=O)NNC(=O)Cc1cccc(O)c1 [compound 17],181 to 182 °C
13,COC(=O)c1ccc(C(=O)NNC(=O)Cc2cccc(O)c2)cc1 [compound 19],201 to 202 °C
14,O=C(Cc1cccc(O)c1)NNC(=O)c1cccc([N+](=O)[O-])c1 [compound 20],179 °C
15,O=C(Cc1cccc(O)c1)NNC(=O)c1ccccc1F [compound 21],154 to 155 °C
16,Cc1ccc(C(=O)NNC(=O)Cc2cccc(O)c2)cc1 [compound 22],175 to 176 °C
17,O=C(Cc1cccc(O)c1)NNC(=O)c1ccccc1Cl [compound 23],172 °C
18,O=C(Cc1cccc(O)c1)NNC(=O)c1cccc(Cl)c1 [compound 24],183 to 184 °C
19,O=C(Cc1cccc(O)c1)NNC(=O)c1ccc(Cl)cc1Cl [compound 25],202 to 203 °C
20,O=C(Cc1cccc(O)c1)NNC(=O)c1ccccc1I [compound 27],190 to 191 °C
21,O=C(Cc1cccc(O)c1)NNC(=O)c1ccc(Br)cc1 [compound 28],229 °C
22,COc1ccc(C(=O)NNC(=O)Cc2cccc(O)c2)c(OC)c1 [compound 29],197 to 198 °C
23,O=C(Cc1cccc(O)c1)NNC(=O)c1ccc(F)cc1 [compound 31],182 to 183 °C
24,O=C(Cc1cccc(O)c1)NNC(=O)c1ccc2ccccc2c1 [compound 32],201 to 202 °C
25,O=C(Cc1cccc(O)c1)NNC(=O)c1cccc(Br)c1 [compound 33],194 to 195 °C
26,O=C(Cc1cccc(O)c1)NNC(=O)c1cccc2ccccc12 [compound 34],210 to 211 °C

row,Compound,melting point
1,COc1ccc(C(=O)NNC(=O)Cc2cccc(O)c2)cc1 [compound 36],158 to 159 °C
2,O=C(Cc1cccc(O)c1)NNC(=O)c1cccc(F)c1 [compound 37],176 to 177 °C
3,O=C(Cc1cccc(O)c1)NNC(=O)c1c(F)cccc1F [compound 38],191 to 192 °C
4,N#Cc1cccc(C(=O)NNC(=O)Cc2cccc(O)c2)c1 [compound 39],181.5 to 182.5 °C
5,O=C(Cc1cccc(O)c1)NNC(=O)c1cccc(Cl)c1Cl [compound 40],220 to 221 °C
6,O=C(Cc1cccc(O)c1)NNC(=O)c1ccc(F)c(F)c1 [compound 41],164 °C
7,CCOc1cccc(C(=O)NNC(=O)Cc2cccc(O)c2)c1 [compound 42],130 to 132 °C
8,CC(C)(C)c1ccc(C(=O)NNC(=O)Cc2cccc(O)c2)cc1 [compound 43],183 to 184 °C
9,CCc1ccc(C(=O)NNC(=O)Cc2cccc(O)c2)cc1 [compound 44],155 to 156 °C
10,CCOc1ccc2ccccc2c1C(=O)NNC(=O)Cc1cccc(O)c1 [compound 45],148 to 150 °C
11,O=C(Cc1cccc(O)c1)NNC(=O)c1ccc(SC(F)(F)F)cc1 [compound 46],165 to 166 °C
12,O=C(Cc1cccc(O)c1)NNC(=O)c1ccccc1C(F)(F)F [compound 47],195 to 196 °C
13,O=C(Cc1cccc(O)c1)NNC(=O)c1cccc(OC(F)(F)F)c1 [compound 48],256 to 257 °C
14,O=C(Cc1cccc(O)c1)NNC(=O)c1ccccc1[N+](=O)[O-] [compound 49],206 to 207 °C
15,O=C(Cc1cccc(O)c1)NNC(=O)c1ccc(Cl)cc1 [compound 50],223 °C
16,O=C(Cc1cccc(O)c1)NNC(=O)c1ccccc1 [compound 51],162 to 163 °C
17,O=C(Cc1cccc(O)c1)NNC(=O)c1cccc(C(Cl)Cl)c1 [compound 52],154 to 155 °C
18,O=C(Cc1cccc(O)c1)NNC(=O)c1cccc(C(F)(F)F)c1 [compound 53],161 to 162 °C
19,O=C(Cc1cccc(O)c1)NNC(=O)c1ccc(CCl)cc1 [compound 54],175 to 176 °C
20,COc1cccc(C(=O)NNC(=O)Cc2cccc(O)c2)c1 [compound 55],138 to 139 °C
21,O=C(Cc1cccc(O)c1)NNC(=O)c1ccc([N+](=O)[O-])cc1 [compound 56],222 to 223 °C
22,Cc1cc(OCc2ccccc2)cc(OCc2ccccc2)c1C(=O)NNC(=O)Cc1cccc(O)c1 [compound 58],165 to 166 °C
23,"CCc1cc(OCc2ccccc2)ccc1C(=O)NNC(=O)Cc1cccc(O)c1 [compound 59, N′-[2-(3-hydroxyphenyl)acetyl]-4-benzyloxy-2-ethylbenzohydrazide]",190 to 191 °C
24,O=C(Cc1cccc(O)c1)NNC(=O)c1c(Br)cc(OCc2ccccc2)cc1OCc1ccccc1 [compound 64],194 to 195 °C
25,O=C(Cc1cccc(O)c1)NNC(=O)c1ccc(O)cc1C(F)(F)F [compound 71],210 to 212 °C
26,"O=C(Cc1cccc(O)c1)NNC(=O)c1ccc(O)c([N+](=O)[O-])c1 [compound 74, N′-[2-(3-hydroxyphenyl)acetyl]-4-hydroxy-3-nitrobenzohydrazide]",190 to 193 °C

# Continued, values first:
row,melting point,Compound
1,233 to 235 °C,O=C(Cc1cccc(O)c1)NNC(=O)c1ccc(O)cc1O [compound 1]
2,214 to 215 °C,O=C(Cc1cccc(O)c1)NNC(=O)c1ccccc1O [compound 5]
3,224 to 225 °C,O=C(Cc1cccc(O)c1)NNC(=O)c1cccc(O)c1 [compound 6]
4,165 to 166 °C,O=C(Cc1cccc(O)c1)NNC(=O)c1ccc(O)cc1Cl [compound 8]
5,198 to 199 °C,COc1cc(F)c(C(=O)NNC(=O)Cc2cccc(O)c2)c(F)c1 [compound 12]
6,171 to 172 °C,COc1ccc(C(=O)NNC(=O)Cc2cccc(O)c2)c(C)c1 [compound 13]
7,156 to 157 °C,Cc1cccc(C(=O)NNC(=O)Cc2cccc(O)c2)c1 [compound 18]
8,197 to 198 °C,Cc1ccccc1C(=O)NNC(=O)Cc1cccc(O)c1 [compound 30]
9,208 to 209 °C,COc1cc(O)ccc1C(=O)NNC(=O)Cc1cccc(O)c1 [compound 35]
10,226 to 227 °C,Cc1cc(O)cc(O)c1C(=O)NNC(=O)Cc1cccc(O)c1 [compound 57]
11,199 to 200 °C,"CCc1cc(O)ccc1C(=O)NNC(=O)Cc1cccc(O)c1 [compound 60, N′-[2-(3-hydroxyphenyl)acetyl]-2-ethyl-4-hydroxybenzohydrazide]"
12,193 to 194 °C,Cc1cc(O)c(C)c(O)c1C(=O)NNC(=O)Cc1cccc(O)c1 [compound 61]
13,251 °C,CCc1cc(O)cc(O)c1C(=O)NNC(=O)Cc1cccc(O)c1 [compound 62]
14,226 to 227 °C,O=C(Cc1cccc(O)c1)NNC(=O)c1c(O)cc(O)cc1Br [compound 63]
15,232 to 233 °C,COc1ccc(CC(=O)NNC(=O)c2c(C)cc(O)cc2O)cc1O [compound 66]
16,237 to 238 °C,"O=C(Cc1cccc(O)c1)NNC(=O)c1c(O)cc(O)cc1O [compound 68, N′-[2-(3-hydroxyphenyl)acetyl]-2,4,6-trihydroxybenzohydrazide]"
17,198 to 200 °C,CCCc1cc(O)cc(O)c1C(=O)NNC(=O)Cc1cccc(O)c1 [compound 69]
18,217 °C and 213 to 215 °C,"O=C(Cc1cccc(O)c1)NNC(=O)c1c(O)cc(O)cc1Cl [compound 70, N′-[2-(3-hydroxyphenyl)acetyl]-2-chloro-4,6-dihydroxybenzohydrazide]"
19,230 to 232 °C,O=C(Cc1cccc(O)c1)NNC(=O)c1c(O)cc(O)cc1F [compound 72]
20,259 °C,O=C(Cc1cccc(O)c1)NNC(=O)c1c(O)cc(O)cc1Br [compound 73]
21,207 to 208 °C,Cc1cc(C(=O)NNC(=O)Cc2cccc(O)c2)ccc1O [compound 75]
22,154 to 157 °C,CC(C)(C)c1cc(C(=O)NNC(=O)Cc2cccc(O)c2)ccc1O [compound 76]
23,230 to 231 °C,O=C(Cc1cccc(O)c1)NNC(=O)c1ccc(O)c(Cl)c1 [compound 77]
24,264 to 265 °C,"Nc1cc(C(=O)NNC(=O)Cc2cccc(O)c2)ccc1O [compound 78, N′-[2-(3-hydroxyphenyl)acetyl]-3-amino-4-hydroxybenzohydrazide]"
25,105 to 106 °C,COc1cc(O)cc(Cl)c1C(=O)NNC(=O)Cc1cccc(O)c1 [compound 79]
26,269 to 270 °C,O=C(Cc1cccc(O)c1)NNC(=O)c1cc(Cl)c(O)cc1O [compound 80]
27,252 to 253 °C,O=C(Cc1cccc(O)c1)NNC(=O)c1ccc(O)c(Cl)c1O [compound 81]
28,251 °C,Cc1c(O)ccc(C(=O)NNC(=O)Cc2cccc(O)c2)c1C [compound 82]
29,230 °C,CCCCCc1cc(O)cc(O)c1C(=O)NNC(=O)Cc1cccc(O)c1 [compound 83]
